From patent US6924309B2 (Children, Youth and Women's Health Service Incorporated, priority 1999, dated 2005) come the findings set out here.

≈ marks a conversion by molar mass, not a printed value. Entries after “also recorded” stand apart in the source; their conditions may differ. Like-named read-outs stand apart in the source and are kept apart here.

The target in one series is T1, 15-LO (Glycine max, UniProt P08170).
T1 construct: purchased Sigma Chemical Company
T1 sequence (P08170 1-839): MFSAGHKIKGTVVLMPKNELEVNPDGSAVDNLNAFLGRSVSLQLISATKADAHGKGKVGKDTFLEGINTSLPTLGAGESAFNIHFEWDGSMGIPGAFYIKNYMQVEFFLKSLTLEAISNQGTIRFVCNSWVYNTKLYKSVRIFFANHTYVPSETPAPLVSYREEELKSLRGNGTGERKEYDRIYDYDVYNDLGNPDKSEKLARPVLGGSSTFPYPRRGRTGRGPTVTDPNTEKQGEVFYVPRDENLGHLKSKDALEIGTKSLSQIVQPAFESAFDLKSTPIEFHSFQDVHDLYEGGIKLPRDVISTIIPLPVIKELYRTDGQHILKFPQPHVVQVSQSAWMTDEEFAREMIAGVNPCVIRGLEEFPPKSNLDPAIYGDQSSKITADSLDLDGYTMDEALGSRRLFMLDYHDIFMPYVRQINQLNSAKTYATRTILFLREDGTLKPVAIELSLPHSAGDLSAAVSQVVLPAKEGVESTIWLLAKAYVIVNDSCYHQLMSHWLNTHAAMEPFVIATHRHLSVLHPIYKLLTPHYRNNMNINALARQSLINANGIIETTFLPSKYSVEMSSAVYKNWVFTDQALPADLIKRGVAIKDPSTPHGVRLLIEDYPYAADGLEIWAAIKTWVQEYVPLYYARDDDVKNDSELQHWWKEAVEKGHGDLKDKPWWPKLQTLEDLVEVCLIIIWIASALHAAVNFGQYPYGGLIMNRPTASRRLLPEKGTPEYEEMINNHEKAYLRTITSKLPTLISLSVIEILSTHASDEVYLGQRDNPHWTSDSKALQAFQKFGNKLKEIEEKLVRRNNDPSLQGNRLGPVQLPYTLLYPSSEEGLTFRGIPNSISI
Put plainly: Effect on 15-LO catalysed oxidation of arachidonic acid. The class given is biochemical, soybean.

Series [1] concerns Plasmodium falciparum isolates 3D7, FC27, K+. Put plainly: Radiometric (3H-hypoxanthine) assay on asexual blood stages of P. falciparum. The class given is cell-based. Particulars: for EC50: Plasmodium falciparum, read-out: EC50 against P. falciparum. As for the experimental part:
Using the radiometric assay^(36), the effects of the Lx compounds were examined for antimalarial activity. The Plasmodium falciparum isolates used were 3D7, FC27, K^1 and K^+. These were maintained in human blood group O^+ erythrocytes essentially as described previously using RPM-1640 (HEPES modification) supplemented with 0.25% D-glucose, 0.2% Tess buffer (Sigma Chemical Co, Lt Louis, Mo.) and 10% heat inactivated (56° C., 20 min) human blood group AB serum. Cultures were maintained in tissue culture flasks (Corning, N.Y.) at 37° C. under an atmosphere of 1% 2, 5% CO2 in N2. P. falciparum cultures containing approximately 3.0:% parasitaemia were adjusted to 1×10^8 erythrocytes/ml. To 50 μl of the parasite-erythrocyte culture (5×10^6 erythrocytes) in wells of 96-well microdilution plates wvas added 50 μl of the designated concentration of fatty acid or equivalent amounts of solutions or media. The treated cultures were incubated at 37° C. for 4 h and then pulsed with 50 μl (2.5 μCi) of ^3H-hypoxanthine. After a further 18 h incubation the parasites-erythrocytes were harvested onto glass fibre filter papers using a cell harvester. The amount of radioactivity incorporated was measured in a β-counter. The results have been expressed as % inhibition of parasite growth i.e. the dpm in the fatty acid diluent−dpm in the fatty acid treated cultures/dpm in diluent×100.

The next series relates to Red blood cells. Put plainly: Incorporation of Lx3 into normal red blood cells. To be noted: 200 μg Lx3, 37° C., 4 h. The class given is cell-based. As for the experimental part:
Red blood cells or parasitised red blood cells (K+ strain, 9.25% parasitaenia) (5×10^8 cells) were incubated with 200 μg of Lx3 in 10 mls of HBSS at 37° C. for 4 h. The incubate was centrifuged (3,000 rpm for 10 min) and the medium aspirated. The cell pellet was washed 3 times with 5 ml of HBSS with centrifugation. Lipids were extracted from the cell pellet and neutral lipids, phospholipids and unesterffied Lx3 were resolved by thin-layer chromatography. The neutral lipid and phospholipid samples were transesterified to release any bound Lx3. The amount of Lx3 associated with the unesterifield, neutral lipid and phospholipid fractions was quantitated by gas-liquid chromatography using nonadecanoic acid (nonadecylic acid (19:0)) methyl ester (48 nmol) as a reference standard. For definitive identification of Lx3 and possible products (elongation, de-saturation, shorter-chain products), a combined gas-liquid chromatography-mass spectrometry (GC-MS) technique was employed. FIG. 6 is the GC-MS (expanded view) of Lx3 isolated from parasitised RBC. The mass spectrum of each peak unambiguously identifies 19:0 and Lx3 (19:3(n-6)-N02) respectively. […] No Lx3 was esterified in neutral lipids and phospholipids (Table 4). It is important to note that parasitised red blood cells took up approximately 6 times more Lx3 than non-parasitised cells. […]

Series [2] relates to parasitised red blood cells (K+ strain). Put plainly: Incorporation of Lx3 into parasitised red blood cells. The class given is cell-based, P. falciparum. As for the experimental part: Red blood cells or parasitised red blood cells (K+ strain, 9.25% parasitaenia) (5×10^8 cells) were incubated with 200 μg of Lx3 in 10 mls of HBSS at 37° C. for 4 h. The incubate was centrifuged (3,000 rpm for 10 min) and the medium aspirated. The cell pellet was washed 3 times with 5 ml of HBSS with centrifugation. Lipids were extracted from the cell pellet and neutral lipids, phospholipids and unesterffied Lx3 were resolved by thin-layer chromatography. The neutral lipid and phospholipid samples were transesterified to release any bound Lx3. The amount of Lx3 associated with the unesterifield, neutral lipid and phospholipid fractions was quantitated by gas-liquid chromatography using nonadecanoic acid (nonadecylic acid (19:0)) methyl ester (48 nmol) as a reference standard. For definitive identification of Lx3 and possible products (elongation, de-saturation, shorter-chain products), a combined gas-liquid chromatography-mass spectrometry (GC-MS) technique was employed. FIG. 6 is the GC-MS (expanded view) of Lx3 isolated from parasitised RBC. The mass spectrum of each peak unambiguously identifies 19:0 and Lx3 (19:3(n-6)-N02) respectively. […] No Lx3 was esterified in neutral lipids and phospholipids (Table 4). It is important to note that parasitised red blood cells took up approximately 6 times more Lx3 than non-parasitised cells. […] The lack of derivatisation or incorporation of Lx3 into neutral lipids and phospholipids is almost certainly due to Lx3 not having a carboxylic acid group which is mandatory for the conversion of a fatty acid to its coenzyme A ester.

Another series concerns P. berghei. The class given is in vivo. On the set-up: Parasitaemia: unit not given here. Particulars: for Parasitaemia: 40 mg/kg from one day prior to infection, twice a day. As for the experimental part:
In other sets of experiments, the effects of Lx3 were examined in vivo in mice infected with P. berghei. FIG. 10 illustrates the effect of Lx3 on the level of P. berghei parasitaemia in the mice. Results are the means ±SEM of five mice per group. Mice were infected intraperitoneally with the parasite and when an appropriate parasitaemia was reached they were treated intravenously with 40 mg/kg weight of MP3.
Mice were treated at one day prior to infection with 2 doses of 40 mg/kg body weight and then another dose 60 min prior to infection (0 time) on the following day. The parasitaemia was checked 4 h later and at the times stipulated in the Table. The animals were treated with either DPC or Lx3 twice a day 30 min after taking a parasitaemia reading. The results are presented as mean ±SEM of parasitaelnia of 4 mice per group.

In a further series the test system is TNF-α. Kind of series: TNF-α production by human peripheral blood leukocytes. The class given is cell-based. Particulars: Leukocyte, stimulus S. aureus, read-out: % Inhibition (compared to control) of TNF-α. As for the experimental part:
(§1) The effects of the nitroalkanes (Lx1-Lx5) on lymphocyte activation and cytokine production were examined. The ability of the PUFA to suppress mitogen-induced proliferation in response to PHA and S. aureus, and to inhibit cytokine production (TNFα and IFNγ), was assessed.

The test system of a further series is IFN-γ. Put plainly: IFN-γ production by human peripheral blood leukocytes. Format: cell-based. To be noted: Leukocyte, stimulus PHA, read-out: % Inhibition (compared to control) of IFN-γ. As for the experimental part: as §1
A further series in a line: Paw oedema. Particulars: in vivo.
The next series concerns P. falciparum. To be noted: 20 μg/ml.

As to `CCCCC/C=C\C/C=C\C/C=C\CCCCC[N+](=O)[O-]` [Lx3, (z,z,z)-1-Nitro-6,9,12-octadecatriene], the “Effect on 15-LO catalysed oxidation of AA” value at 15-LO is given as “Nil”. The “Antimalarial activity (in words)” value in [1] is reported as “very active”. Moreover, the EC50 in series [1] (3D7, isolate FC27) stood at 6 µg/mL (≈ 20.4 µM); in series [1] (3D7, isolate K+), 3 µg/mL (≈ 10.2 µM); in [1] (isolate 3D7) it was 2 µg/mL (≈ 6.82 µM). Further, in series [1] (chloroquine resistant isolate), the “Activity against a chloroquine resistant isolate” value is on record as “active”. Moreover, the “Reduction of antimalarial activity by human serum” value in series [1] (compound 20 μg/ml, presence of human serum) is reported as “did not affect the activity; also recorded: not inhibited by serum”. In addition, the “Antimalarial activity on P. falciparum 3D7 (FIG. 1, in words)” value in [1] (isolate 3D7) is “greatest activity”. Moreover, the “Recovered cellular Lx3, unesterified Lx3” value was 2.1 ± 0.2 % of total added in the series on Red blood cells and 12.9 ± 0.4 % of total added in [2] (parasitised red blood cells, 200 μg Lx3, 37° C., 4 h). The “Form of the compound taken up by the cells” value in series [2] (GC-MS) was “remained exclusively in the unesterified form”. In series [2] (either cell population, GC-MS), the “Elongation, chain-shortening or de-saturation products detected” value was “No elongation, chain-shortening or de-saturation products”. Further, the Tolerability in mice result in the series with P. berghei (intravenous 40 mg/kg) is on record as “tolerated Lx3 quite well”. The Parasitaemia with P. berghei (mice, 4 h after infection) is recorded as 0.18 ± 0.05; in the series on P. berghei (mice, 22 h after infection) it was 0.30 ± 0.10; in the series on P. berghei (mice, 28 h after infection), 0.14 ± 0.05; in the series on P. berghei (mice, 46 h after infection) it was 0.40 ± 0.14. For the same compound, the “Change in circulating parasites (parasitaemia)” value with P. berghei (mice, single intravenous dose 40 mg/kg, within 5 h after injection) is “marked drop in circulating parasites”. Besides, the results for the inhibition at 20 µM in the series on TNF-α and with IFN-γ were 48.2% and 37.6%, respectively. In addition, the “Effect in paw oedema” value in the series “Paw oedema” is recorded as “either inflammatory or anti-inflammatory”. In the series with P. falciparum, the “Morphology of parasites in treated cultures” value was “degenerate mature rings, trophozoites and shizonts”.
